The results in this text go back to US10173991B2, “Sulfone amide linked benzothiazole inhibitors of endothelial lipase” (BRISTOL-MYERS SQUIBB COMPANY, priority 2014, dated 2019).

The target in the assay is Endothelial lipase (EL) (Homo sapiens (Human), UniProt Q9Y5X9). Description: Endothelial lipase (EL) enzymatic assay with fluorescent substrate A10070 in DMPG vesicles. The assay is classed as biochemical. Put shortly:
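Substrate A10070 sits in sonicated DMPG vesicles at 0.11 mole fraction. Lipase and compound preincubated 30 min, 37° C, in HEPES pH 8.0 buffer with CaCl2.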

The mark [1] stands for this setting: EL from conditioned media of HT-1080 cells, 30 min preincubation at 37° C.

Read-outs that look alike come from different tables or passages of the source.

Sequence of Endothelial lipase (EL) (Q9Y5X9 21-500): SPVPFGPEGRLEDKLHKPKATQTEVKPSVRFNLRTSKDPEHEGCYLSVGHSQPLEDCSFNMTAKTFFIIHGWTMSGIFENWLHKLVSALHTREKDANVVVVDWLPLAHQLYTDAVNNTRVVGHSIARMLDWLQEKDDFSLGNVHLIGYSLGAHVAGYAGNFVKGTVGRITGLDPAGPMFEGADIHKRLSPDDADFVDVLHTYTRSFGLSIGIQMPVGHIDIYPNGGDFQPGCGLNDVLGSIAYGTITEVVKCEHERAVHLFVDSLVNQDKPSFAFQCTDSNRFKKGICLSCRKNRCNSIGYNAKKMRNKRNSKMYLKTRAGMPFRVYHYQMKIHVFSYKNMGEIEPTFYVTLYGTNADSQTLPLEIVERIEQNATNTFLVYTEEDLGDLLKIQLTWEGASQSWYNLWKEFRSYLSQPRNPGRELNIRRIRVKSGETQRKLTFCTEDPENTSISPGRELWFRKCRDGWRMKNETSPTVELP

`COCCS(=O)(=O)C(C(=O)NCC(=O)NC1CC1)c1nc2cc(F)c(-c3ccc4c(c3)OCC(=O)N4)cc2s1` (centres unmarked) [Example 417, N-[(cyclopropyl-carbamoyl)methyl]-2-[5-fluoro-6-(3-oxo-3,4-dihydro-2H-1,4-benzoxazin-7-yl)-1,3-benzothiazol-2-yl]-2-(2-methoxyethane-sulfonyl)acetamide] registered an IC50 of 35 nM.

In turn, `COCCS(=O)(=O)C(C(=O)NCC(=O)NC1CC1)c1nc2cc(F)c(-c3ccc4c(c3)CCCN4C(=O)OC(C)(C)C)cc2s1` (centres unmarked) [Example 418, tert-butyl 6-[2-({[(cyclopropyl-carbamoyl)methyl]carbamoyl}(2-methoxyethane-sulfonyl)methyl)-5-fluoro-1,3-benzothiazol-6-yl]-1,2,3,4-tetrahydro-quinoline-1-carboxylate] returned an IC50 of 9 nM.

`COCCS(=O)(=O)C(C(=O)NCC(=O)NC1CC1)c1nc2cc(F)c(-c3ccc4c(c3)OCCN4C(=O)OCc3ccccc3)cc2s1` (centres unmarked) [Example 419, benzyl 7-[2-({[(cyclopropyl-carbamoyl)methyl]carbamoyl}(2-methoxyethane-sulfonyl)methyl)-5-fluoro-1,3-benzothiazol-6-yl}-3,4-dihydro-2H-1,4-benzoxazine-4-carboxylate] gave an IC50 of 9 nM. On the same count and under the same terms, the value for `COCCS(=O)(=O)C(C(=O)NCC(=O)NC1CC1)c1nc2cc(F)c(-c3ccc(-c4nn[nH]n4)c(F)c3)cc2s1` (centres unmarked) [Example 420, N-[(cyclopropyl-carbamoyl)methyl]-2-{5-fluoro-6-[3-fluoro-4-(2H-1,2,3,4-tetrazol-5-yl)phenyl]-1,3-benzothiazol-2-yl}-2-(2-methoxyethane-sulfonyl)acetamide] was 11 nM. Regarding `O=C(CNC(=O)C(c1nc2cc(F)c(-c3ccc(F)nc3)cc2s1)S(=O)(=O)CCN1CCOCC1)NC1CC1` (centres unmarked) [Example 421, N-[(Cyclopropylcarbamoyl)methyl]-2-[5-fluoro-6-(6-fluoropyridin-3-yl)-1,3-benzothiazol-2-yl]-2-[2-(morpholin-4-yl)ethanesulfonyl]acetamide], under setting [1], the IC50 was determined as 22 nM. In turn, `COC(=O)Nc1ccc(-c2cc3sc(C(C(=O)NCC(=O)NC4CC4)S(=O)(=O)CCN4CCOCC4)nc3cc2F)cc1` (centres unmarked) [Example 422, methyl N-{4-[2-({[(cyclopropyl-carbamoyl)methyl]carbamoyl}[2-(morpholin-4-yl)ethanesulfonyl]methyl)-5-fluoro-1,3-benzothiazol-6-yl]phenyl} carbamate] registered an IC50 of 3 nM. For `O=C(CNC(=O)C(c1nc2cc(F)c(-c3ccc(NC(=O)OCc4ccccc4)cc3)cc2s1)S(=O)(=O)CCN1CCOCC1)NC1CC1` (centres unmarked) [Example 423, benzyl N-{4-[2-({[(cyclopropyl-carbamoyl)methyl]carbamoyl}[2-(morpholin-4-yl)ethanesulfonyl]methyl)-5-fluoro-1,3-benzothiazol-6-yl]phenyl} carbamate], it took 1 nM to reach half-maximal inhibition (IC50). Same read-out and setting: the value for `O=C(CNC(=O)C(c1nc2cc(F)c(-c3ccc(NC(=O)OCc4ccccc4)nc3)cc2s1)S(=O)(=O)CCN1CCOCC1)NC1CC1` (centres unmarked) [Example 424, benzyl N-{5-[2-({[(cyclopropyl-carbamoyl)methyl]carbamoyl}[2-(morpholin-4-yl)ethanesulfonyl]methyl)-5-fluoro-1,3-benzothiazol-6-yl]pyridin-2-yl} carbamate] was 15 nM. As for `COCCS(=O)(=O)C(C(=O)NCC(=O)NC1CC1)c1nc2cc(C(=O)N3CCOCC3)c(F)cc2s1` (centres unmarked) [Example 425, N-(2-(Cyclopropylamino)-2-oxoethyl)-2-(6-fluoro-5-(morpholine-4-carbonyl)benzo[d]thiazol-2-yl)-2-((2-methoxyethyl)sulfonyl)acetamide], the IC50 under setting [1] was determined as 204 nM. `CC(C)c1cc(CNC(=O)c2ccc3sc(C(C(=O)NCC(=O)NC4CC4)S(=O)(=O)Cc4ccc(F)cc4)nc3c2)on1` (centres unmarked) [Example 426, 2-({[(cyclopropyl-carbamoyl)methyl]carbamoyl}(4-fluorophenyl)methanesulfonyl-methyl)-N-{[3-(propan-2-yl)-1,2-oxazol-5-yl]methyl}-1,3-benzothiazole-5-carboxamide] came in with a half-inhibitory concentration (IC50) of 62 nM. The molecule `COCCS(=O)(=O)C(C(=O)NCC(=O)NC1CC1)c1nc2cc(C(=O)OC(C)(C)C)ccc2s1` (centres unmarked) [Example 427, tert-butyl 2-({[(cyclopropyl-carbamoyl)methyl]carbamoyl}(2-methoxyethane-sulfonyl)methyl)-1,3-benzothiazole-5-carboxylate] had an IC50 of 66 nM. In turn, `COCCS(=O)(=O)C(C(=O)NCC(=O)NC1CC1)c1nc2cc(C(=O)OC(C)(C)C)c(F)cc2s1` (centres unmarked) [Example 428, tert-butyl 2-({[(cyclopropyl-carbamoyl)methyl]carbamoyl}(2-methoxyethane-sulfonyl)methyl)-6-fluoro-1,3-benzothiazole-5-carboxylate] returned an IC50 of 12 nM. `COCCS(=O)(=O)C(C(=O)NCC(=O)NC1CC1)c1nc2cc(C(=O)N3CC(C)(OC)C3)c(F)cc2s1` (centres unmarked) [Example 429, N-[(cyclopropyl-carbamoyl)methyl]-2-[6-fluoro-5-(3-methoxy-3-methylazetidine-1-carbonyl)-1,3-benzothiazol-2-yl}-2-(2-methoxyethane-sulfonyl)acetamide] came in with an IC50 of 69 nM. Against the preceding molecule, the IC50 is about 5.8-fold higher.

The molecule `O=C(CNC(=O)C(c1nc2ccc(-c3ccccc3)cc2s1)S(=O)(=O)c1ccccc1)NC1CC1` (centres unmarked) [Example 430, 2-(Benzenesulfonyl)-N-[(cyclopropylcarbamoyl)methyl]-2-(6-phenyl-1,3-benzothiazol-2-yl)acetamide] yielded a concentration for half-maximal inhibition (IC50) under setting [1] of 6.6 nM. `COCCNC(=O)c1ccc(-c2ccc3nc(C(C(=O)NCC(=O)NC4CC4)S(=O)(=O)c4ccccc4)sc3c2)cc1` (centres unmarked) [Example 431, 4-{2-[(benzenesulfonyl) ({[(cyclopropyl-carbamoyl)methyl]carbamoyl})methyl]-1,3-benzothiazol-6-yl}-N-(2-methoxyethyl) benzamide] showed an IC50 of 3 nM. `O=C(CNC(=O)C(c1nc2ccc(-c3cncnc3)cc2s1)S(=O)(=O)c1ccccc1)NC1CC1` (centres unmarked) [Example 432, 2-(benzenesulfonyl)-N-[(cyclopropyl-carbamoyl)methyl]-2-[6-(pyrimidin-5-yl)-1,3-benzothiazol-2-yl]acetamide] came in with an IC50 of 61 nM. As to `O=C(CNC(=O)C(c1nc2ccc(-c3ccc(F)nc3)cc2s1)S(=O)(=O)c1ccccc1)NC1CC1` (centres unmarked) [Example 434, 2-(benzenesulfonyl)-N-[(cyclopropyl-carbamoyl)methyl]-2-[6-(6-fluoropyridin-3-yl)-1,3-benzothiazol-2-yl] acetamide], the IC50 came out at 14 nM. `O=C(CNC(=O)C(c1nc2cc(-c3cncnc3)ccc2s1)S(=O)(=O)c1ccccc1)NC1CC1` (centres unmarked) [Example 435, 2-(benzenesulfonyl)-N-[(cyclopropyl-carbamoyl)methyl]-2-[5-(pyrimidin-5-yl)-1,3-benzothiazol-2-yl]acetamide] yielded an IC50 of 12 nM. The IC50 values of the last two molecules are within 1.5-fold of each other. The same measure, in the same setting: the value for `CC(=O)NCc1ccc(-c2ccc3sc(C(C(=O)NCC(=O)NC4CC4)S(=O)(=O)c4ccccc4)nc3c2)cc1` (centres unmarked) [Example 436, 2-(benzenesulfonyl)-N-[(cyclopropyl-carbamoyl)methyl]-2-{5-[4-(acetamidomethyl)phenyl]-1,3-benzothiazol-2-yl} acetamide] was 13 nM; that for `O=C(CNC(=O)C(c1nc2cc(-c3ccc(F)nc3)ccc2s1)S(=O)(=O)c1ccccc1)NC1CC1` (centres unmarked) [Example 437, 2-(benzenesulfonyl)-N-[(cyclopropyl-carbamoyl)methyl]-2-[5-(6-fluoropyridin-3-yl)-1,3-benzothiazol-2-yl] acetamide] was 13 nM. Molecule `Cc1cccc(S(=O)(=O)C(C(=O)NCC(=O)NC2CC2)c2nc3cc(-c4ccc(F)nc4)ccc3s2)c1` (centres unmarked) [Example 438, N-[(cyclopropyl-carbamoyl)methyl]-2-[5-(6-fluoropyridin-3-yl)-1,3-benzothiazol-2-yl]-2-(3-methylbenzene-sulfonyl)acetamide] displayed an IC50 of 33 nM. Turning to `Cn1ccc(-c2ccc3sc(C(C(=O)NCC(=O)NC4CC4)S(=O)(=O)c4ccccc4)nc3c2)cc1=O` (centres unmarked) [Example 439, 2-(benzenesulfonyl)-N-[(cyclopropyl-carbamoyl)methyl]-2-[5-(1-methyl-2-oxo-1,2-dihydropyridin-4-yl)-1,3-benzothiazol-2-yl]acetamide], it took 48 nM to reach half-maximal inhibition (IC50). On the same count and under the same terms, the value for `O=C(CNC(=O)C(c1nc2cc(F)c(-c3cncnc3)cc2s1)S(=O)(=O)c1ccccc1F)NC1CC1` (centres unmarked) [Example 441, N-[(cyclopropyl-carbamoyl)methyl]-2-[5-fluoro-6-(pyrimidin-5-yl)-1,3-benzothiazol-2-yl]-2-(2-fluorobenzene-sulfonyl)acetamide] was 87 nM; that for `CC(=O)NCc1ccc(-c2cc3sc(C(C(=O)NCC(=O)NC4CC4)S(=O)(=O)c4ccc(F)c(F)c4)nc3cc2F)cc1` (centres unmarked) [Example 442, N-[(cyclopropyl-carbamoyl)methyl]-2-(3,4-difluorobenzene-sulfonyl)-2-{6-[4-(acetamidomethyl)phenyl]-5-fluoro-1,3-benzothiazol-2-yl}acetamide] was 10 nM; that for `Cc1cc(-c2cc3sc(C(C(=O)NCC(=O)NC4CC4)S(=O)(=O)c4cccc(Cl)c4)nc3cc2F)cnn1` (centres unmarked) [Example 443, 2-(3-chlorobenzene-sulfonyl)-N-[(cyclopropyl-carbamoyl)methyl]-2-[5-fluoro-6-(6-methylpyridazin-4-yl)-1,3-benzothiazol-2-yl}acetamide] was 37 nM. In the case of `CC(=O)NCc1ccc(-c2cc3sc(C(C(=O)NCC(=O)NC4CC4)S(=O)(=O)c4cccc(Cl)c4)nc3cc2F)cc1` (centres unmarked) [Example 444, 2-(3-chlorobenzene-sulfonyl)-N-[(cyclopropyl-carbamoyl)methyl]-2-{6-[4-(acetamidomethyl)phenyl]-5-fluoro-1,3-benzothiazol-2-yl}acetamide], half-maximal inhibition (IC50) was put at 5 nM.
